Experimental data taken from patent publication US7563819B1, “Esters of 5-aminolevulinic acid as photosensitizing agents in photochemotherapy” (Photocure ASA, priority 2000, dated 2009).
“Also recorded” adds a separate entry of the source.

How the values were obtained:
[1] = tested on: WiDr cells; experiment: Measurement of porphyrin formation in cell culture in vitro; type: cell-based; conditions: 4 h incubation; for POTENCY (Relative ability to induce porphyrin formation): 0.001-1 mM, relative to ALA = 1; for potency in inducing cellular porphyrin formation relative to ALA: fold versus ALA; for ALA concentration giving the same porphyrin formation as 0.001 mM ester: ester at 0.001 mM
Method: The test compounds were dissolved in DMSO to a concentration of 100 mM (stock solution). Appropriate concentrations were obtained by dilution of the stock solutions with phosphate-buffered saline (PBS) or culture medium.
WiDr cells, derived form a primary adenocarcinoma of the rectosigmoid colon, were subcultured in RPMI 1640 medium (Gibco) containing 10% fetal calf serum, 100 U/ml penicillin, 100 μg/ml streptomycin and 1% glutamine. Cells were split 1:100 twice a week, and maintained at 37° C. and 5. % CO2 in a humid environment.
5×10^5 WiDr cells in 2 ml of RPMI medium as described in the previous paragraph were added to each well in 6-well plastic tissue-culture plates (Nunc) and left for 48 hr at 37° C. and 5% CO2 in a humid environment for proper attachment to the substratum. The cells were then washed twice with RPMI 1640-medium without serum, followed by the addition to the wells of the appropriate dilutions of the test compounds in 2 ml of fresh culture medium to final concentrations of 0.001, 0.01, 0.1 and 1 mM in duplicate. The cells were incubated at 37° C. for four hours.
After treatment as described in the paragraph “treatment conditions” the cells were washed twice with PBS and brought into a solution of 1M HClO4 in 50% MeOH by scraping the cells off the substratum by means of a Costar cell scraper. Cell debris was removed by centrifugation. The porphyrin content of each sample was determined fluorometrically using a Perkin Elmer LS50B spectrofluorimeter (excitation at 407 nm, emission was measured at 606 nm using a long pass cut-off filter (530 nm) on the emission side). The fluorescence in each sample was calculated relative to the protein content in control cells as measured by the Bradford method.

[2] = tested on: murine skin; experiment: Porphyrin formation (skin fluorescence) after topical application onto murine skin; type: in vivo, Female Balb/c athymic nude mice; conditions: topical cream on nude mouse skin, 1% (w/w), except compounds 16, 29, 30, 31 at 3% and 17-19 at 10%
Method: The test compounds were formulated in Unguentum Merck (cream base available from Merck, consisting of silicon dioxide, paraffin liq., vaseline, album, cetostearol, polysorbat. 40, glycerol monostearate, Miglyol®812 (a mixture of plant fatty acids), polypropyleneglycol, and purified water) to the desired concentration. Concentrations are given as % (w/w) calculated as hydrochlorides. The formulations were prepared the day before the experiment commenced and stored in the refrigerator until the day of use.
Female Balb/c athymic nude mice, weighing about 22 g, obtained from the Department of Laboratory Animals, The Norwegian Radium Hospital (Montebello, Oslo, Norway) were used in the studies.
Three mice per group was used. Each mouse received 0.05-0.1 g of formulation topically applied at the right flank of the body, evenly distributed and covered with a dressing (Opsite Flexigrid; Smith and Nephew Medical Ltd., Hull, England). The fiber point measuring device consisted of a bundle of optical fibers connected to a spectrofluorimeter which produced the excitation light of 407 nm. The excitation light, which is able to penetrate 0.1-0.5 mm into the tissue, was led through half of the fibers to the mouse skin. The resulting emission fluorescence spectrum (550-750) nm was collected and led through the remaining fibers into a photomultiplier for quantification.
After application of the cream formulation, the fluorescence spectrum from porphyrins in the skin was measured by the fiber-optical method at different intervals of time after administration.
The fluorescence intensity varied from experiment to experiment. Therefore 1% (w/w) hexyl 5-aminolevulinate-HCl was included in each experiment as an internal control.

Row | Structure (SMILES) | POTENCY (Relative ability to induce porphyrin formation) [1] | skin fluorescence level after topical application [2] | potency in inducing cellular porphyrin formation relative to ALA [1] | also measured
1 | NCC(=O)CCC(=O)O [ALA, 5-aminolevulinic acid] | 1 | – | – | –
2 | CCCCC(C)OC(=O)CCC(=O)CN.Cl (stereo not shown) [Compound 1, 1-methyl-pentyl 5-amino-4-oxopentanoate Hydrochloride] | 3 | intermediate fluorescence levels | – | efficiency in inducing porphyrin formation compared with ALA ([1]; at low concentrations): only slightly better than ALA
3 | CC(C)c1ccc(COC(=O)CCC(=O)CN)cc1.Cl [Compound 2, 4-Isopropylbenzyl 5-amino-4-oxopentanoate Hydrochloride] | 200 | intermediate levels of fluorescence | approximately 200 times | –
4 | Cc1ccc(COC(=O)CCC(=O)CN)cc1.Cl [Compound 3, 4-Methylbenzyl 5-amino-4-oxopentanoate Hydrochloride] | 200 | high and similar levels of fluorescence | approximately 200 times | –
5 | Cl.NCC(=O)CCC(=O)OCc1ccccc1 [Compound 4, Benzyl 5-amino-4-oxopentanoate hydrochloride] | 100-600 | high levels of fluorescence | – | efficiency in inducing cellular porphyrin synthesis compared with ALA [1]: considerably more efficient than ALA; ALA concentration giving the same porphyrin formation as 0.001 mM ester [1]: 0.6 mM
6 | Cl.NCC(=O)CCC(=O)OCCc1ccccc1 [Compound 5, 2-Phenylethyl 5-amino-4-oxopentanoate Hydrochloride] | 500 | – | – | efficiency in inducing cellular porphyrin synthesis compared with ALA [1]: considerably more efficient than ALA; ALA concentration giving the same porphyrin formation as 0.001 mM ester [1]: 0.4 mM; skin fluorescence level after topical application ([2]; Hydrochloride): low levels of fluorescence; skin fluorescence level after topical application ([2]; listed as 2-phenyl-ethyl 5-aminolevulinate, Hydrochloride): relatively modest fluorescence levels
7 | CCCCCCOC(=O)CCC(=O)CN.Cl [Compound 6, hexyl 5-aminolevulinate-HCl, reference compound] | 100 | highest fluorescence; also recorded: high and similar levels of fluorescence | approximately 100 times | –
8 | Cl.NCC(=O)CCC(=O)OC1CCCCC1 [Compound 7, Cyclohexyl 5-amino-4-oxopentanoate Hydrochloride] | 1 | low levels of fluorescence | – | efficiency in inducing porphyrin formation compared with ALA ([1]; at higher concentrations): less effective than ALA; efficiency in inducing porphyrin formation compared with ALA ([1]; at low concentrations): only slightly more efficient than ALA
9 | CC(C)CCCOC(=O)CCC(=O)CN.Cl [Compound 8, 4-Methyl-1-pentyl 5-amino-4-oxopentanoate Hydrochloride] | 100 | high fluorescence levels | approximately 100 times | –
10 | Cl.NCC(=O)CCC(=O)OCc1ccc(C(F)(F)F)cc1 [Compound 9, 4-(Trifluoromethyl)benzyl 5-amino-4-oxopentanoate Hydrochloride] | 200 | high fluorescence levels | approximately 200 times | –
11 | CC(C)(C)c1ccc(COC(=O)CCC(=O)CN)cc1.Cl [Compound 10, 4-t-Butylbenzyl 5-amino-4-oxopentanoate Hydrochloride] | 200 | Intermediate fluorescence levels | approximately 200 times | –
12 | Cl.NCC(=O)CCC(=O)OCc1ccc([N+](=O)[O-])cc1 [Compound 11, 4-Nitrobenzyl 5-amino-4-oxopentanoate Hydrochloride] | 200 | high levels of fluorescence | approximately 200 times | –
13 | CCCC(CC)OC(=O)CCC(=O)CN.Cl (stereo not shown) [Compound 12, 3-Hexyl 5-amino-4-oxopentanoate Hydrochloride] | – | gave porphyrin formation | – | –
14 | CCCC(C)COC(=O)CCC(=O)CN.Cl (stereo not shown) [Compound 13, 2-Methyl-1-pentyl 5-amino-4-oxopentanoate Hydrochloride] | – | gave porphyrin formation | – | –
15 | Cl.NCC(=O)CCC(=O)OCCCCc1ccccc1 [Compound 14, 4-Phenyl-1-butyl 5-amino-4-oxopentanoate Hydrochloride] | – | only low fluorescence levels | – | –
16 | Cl.NCC(=O)CCC(=O)OCc1ccc(F)cc1 [Compound 15, 4-Fluorobenzyl 5-amino-4-oxopentanoate Hydrochloride] | – | Slightly lower levels | – | –
17 | Cl.NCC(=O)CCC(=O)OCc1ccccc1F [Compound 17, 2-Fluorobenzyl 5-amino-4-oxopentanoate Hydrochloride] | – | intermediate/high activities | – | –
18 | Cl.NCC(=O)CCC(=O)OCc1c(F)c(F)c(F)c(F)c1F [Compound 18, 2,3,4,5,6-Pentafluorobenzyl 5-amino-4-oxopentanoate Hydrochloride] | – | intermediate/high activities | – | –
19 | Cl.NCC(=O)CCC(=O)OCc1ccc(Cl)cc1 [Compound 19, 4-Chlorobenzyl 5-amino-4-oxopentanoate Hydrochloride] | – | high fluorescence levels | – | –
20 | Cl.Cl.NCC(=O)CCC(=O)OCc1cccnc1 [Compound 26, 3-Pyridinylmethyl 5-amino-4-Oxopentanoate Dihydrochloride] | – | intermediate fluorescence | – | –
21 | Cl.NCC(=O)CCC(=O)OCc1ccc(-c2ccccc2)cc1 [Compound 27, 4-Diphenylmethyl 5-amino-4-oxopentanoate Hydrochloride] | – | relatively low fluorescence | – | –
22 | COc1ccc(COC(=O)CCC(=O)CN)cc1.Cl [Compound 28, 4-Methoxybenzyl 5-amino-4-oxopentanoate Hydrochloride] | – | intermediate fluorescence | – | –
23 | CC(=O)OC(C)OC(=O)NCC(=O)CCC(=O)OCc1ccccc1 (stereo not shown) [Compound 30, Benzyl 5-[[1-(acetyloxy)ethoxy]carbonyl]amino-4-oxopentanoate] | – | intermediate/high fluorescence | – | –
